The source of these data is paper PMC7782499, “Progerinin, an optimized progerin-lamin A binding inhibitor, ameliorates premature senescence phenotypes of Hutchinson-Gilford progeria syndrome” (Communications Biology, 2021).

Values joined by “and” are separate entries in the source; they are usually repeats but may differ in a detail not shown here. Equal values may be shown once. Read-outs that look alike come from different tables or passages of the source.

Data set [1] in a line: In vivo pharmacokinetic (PK) analysis, intravenous and oral. Also noted: species or system rats. The conditions noted are these: for bioavailability: read-out: Bioavailability (BA). Here is the method: A. In vivo pharmacokinetic (PK) analysis of JH010 (performed in rats). […] B Effect of SLC-D011 on human ERG (hERG). […] C In vivo pharmacokinetic analysis of SLD-D011. […] HEK293 cells transiently transfected with GFP-PG vectors were treated with SLC-D011 for 24 hr (n = 3 independent experiment; two-tailed Student’s t test). […] “Con” means dimethyl sulfoxide (DMSO)-treated control.
(§1) At pre-set time-points, blood concentration of JH4 was determined by LC-MS/MS analysis[22],[23]. Other chemicals were also tested using similar protocol. In vitro ADME studies (plasma protein binding, CYP inhibition, microsomal stability, plasma stability, and hERG inhibition) were performed by New Drug Development Center (Daegu, Korea) using standard protocols[24],[25].

The test system of another data set is H3K9me3. Kind of data set: H3K9me3 expression in HGPS cells. Type of data set: cell-based, human. The note with it: for H3K9me3 positive cells after treatment with chemicals, Ave / H3K9me3 positive cells after treatment with chemicals / H3K9me3 intensity: AG03198; for H3K9me3 positive cells after treatment with chemicals, Ave: average; for H3K9me3 positive cells after treatment with chemicals: single replicates. Here is the method: Fig. 1 SLC-D011 ameliorates premature aging features of HGPS. A. HEK293 cells were transiently transfected with expression vector encoding wild-type lamin A (WT-LA), lamin A-C661A (LA-C661A), progerin, or progerin-C611A. LA-C661A or progerin-C611A with point mutation in CaaX motif was predicted to be lack of farnesylation, […] that of authentic WT-LA or progerin. GFP-conjugated empty expression vector was used as a negative control. Cells were visualized at 24 h after transfection. B Transient transfection of HEK293 cells with expression vector encoding progerin or […] leads to reduced expression of H3K9me3 (n = 3 independent experiments; two-tailed Student’s t test). C. JH4 derivatives (JH010 and SLC-D011(D011)) inhibit lamin A and progerin interaction. For binding inhibition assay, bead-conjugated lamin A (GST-LA) was incubated with HEK293 cells, transiently transfected with GFP-progerin (PG), and treated with indicated chemicals. Actin was used as a loading control. PPT, co-precipitated materials with recombinant proteins; Sup supernatant. 5 μM of each chemical was used for binding assay. […] H3K9me3 reduction is a well-known marker for premature aged cells. Thus, H3K9me3 expression was evaluated by immunostaining. […] E SLC-D011 obviously suppresses progerin expression. For progerin expression analysis, each chemical was used to treat HGPS cells (AG03198, Coriell Cell Repositories) for 7 days. […] F SLC-D011 reduces the expression of progerin in other HGPS cells (AG11513 and AG11498, Coriell Cell Repositories). Treatment with SLC-D011 (2 μM) for 7 days reduced the expression of progerin and p16/INK4A but induced the expression of H3K9me3. […] G JH4, JH010, and SLC-D011 promote cell proliferation. Cell viability was determined by MTT assay after incubation with chemicals for 7 days (n = 3 independent experiments; two-tailed Student’s t test). H JH4, JH010, and SLC-D011 show similar activity for ameliorating nuclear deformation. After incubation with chemicals for 7 days, cells were stained with progerin and H3K9me3 antibodies (n = 3 independent experiment; two-tailed Student’s t test), **p < 0.001. Data are reported as mean ± SD. “Con” means Dimethyl sulfoxide (DMSO)-treated control. The data are normalized to DMSO-treated cells.
Cells were cultured on coverslips, washed with PBS, fixed with 4% paraformaldehyde (PFA) for 30 min at RT, and then permeabilized with 0.2% Triton X-100 at RT for 5 min. After treatment with blocking solution (anti-Human antibody diluted 1:400 in PBS) for 1 h, cells were incubated with anti-lamin A/C (1:400), anti-progerin (1:100), Ki67 (1:200), and anti-H3K9me3 (1:200) in blocking buffer overnight at 4 °C. Finally, cells were incubated with fluorescein isothiocyanate and rhodamine-conjugated secondary antibodies at 4 °C for 7 h. Nuclei were stained with DAPI (4, 6-diamidino-2-phenylindole) at RT for 10 min. After cells were washed three times with PBS, coverslips were mounted with mounting solution (H-5501; Vector Laboratories, Burlingame, CA, USA). Immunofluorescence signal was detected with a fluorescence microscopy (Zeiss and Logos).
For nuclear deformation cell counting, immunofluorescence staining was performed with lamin A or progerin antibodies. After staining, abnormal nuclear membrane was counted in randomly selected fields and expressed as percentages or actual numbers of total cells counted. Abnormalities of nuclear membrane were determined based on the following: (1) lamin A/C or progerin lining was extruded or engulfed, (2) having at least one bleb, and (3) irregular contour. Counting of cells with nuclear deformation was performed by three independent observers who were blinded to chemical treatment group. To analyze histone H3K9me3 intensity or expression, images were quantified using “color histogram” function of Image J software (National Institute of Health, NIH). Fluorescence intensities were subtracted by background signals.

For a further data set, the system named is Lmna G609G/G609G mouse. Also noted: method as in PMID 27617860. The conditions noted are these: intraperitoneal injection; cited from earlier work.
The next data set addresses CYP3A4 (Homo sapiens, UniProt P08684). Kind of data set: CYP inhibition, CYP3A4. Type of data set: in vitro ADME. Here is the method: as §1
A short description of data set [2]: Plasma protein binding, human. The note with it: human, plasma. Type of data set: in vitro ADME. As for the experimental part:
as §1

A short description of the next data set: Plasma stability, rat. Type of data set: in vitro ADME. Here is the method:
(§2) For PK analysis, 5 mg/kg of JH4 in 10% DMSO, 5% […] solution were intravenously injected and 10 mg/kg of JH4 in 10% NMP and 90% PEG400 solution were orally delivered. At pre-set time-points, blood concentration of JH4 was determined by LC-MS/MS analysis[22],[23]. Other chemicals were also tested using similar protocol. In vitro ADME studies (plasma protein binding, CYP inhibition, microsomal stability, plasma stability, and hERG inhibition) were performed by New Drug Development Center (Daegu, Korea) using standard protocols[24],[25].

The nature of data set [3]: Liver microsomal stability, human. Format: in vitro ADME. The conditions noted are these: liver microsomes, read-out: Liver microsomal stability (% remaining during 30min). Here is the method: as §1
A general note: Liver microsomes are a subcellular fraction often used to study metabolism.

For data set [4], the target named is hERG (human Ether-à-go-go-Related Gene) (Homo sapiens, UniProt Q12809). In words: hERG inhibition. Format: in vitro ADME. As for the experimental part:
as §1
In general terms: hERG is a cardiac potassium channel; its block is linked to QT prolongation.

A short description of data set [5]: Liver microsomal stability, mouse. Type of data set: in vitro ADME. The conditions noted are these: liver microsomes, read-out: Liver microsomal stability (% remaining during 30min). Here is the method:
as §2

Sequence of hERG (human Ether-à-go-go-Related Gene) (Q12809 whole entry): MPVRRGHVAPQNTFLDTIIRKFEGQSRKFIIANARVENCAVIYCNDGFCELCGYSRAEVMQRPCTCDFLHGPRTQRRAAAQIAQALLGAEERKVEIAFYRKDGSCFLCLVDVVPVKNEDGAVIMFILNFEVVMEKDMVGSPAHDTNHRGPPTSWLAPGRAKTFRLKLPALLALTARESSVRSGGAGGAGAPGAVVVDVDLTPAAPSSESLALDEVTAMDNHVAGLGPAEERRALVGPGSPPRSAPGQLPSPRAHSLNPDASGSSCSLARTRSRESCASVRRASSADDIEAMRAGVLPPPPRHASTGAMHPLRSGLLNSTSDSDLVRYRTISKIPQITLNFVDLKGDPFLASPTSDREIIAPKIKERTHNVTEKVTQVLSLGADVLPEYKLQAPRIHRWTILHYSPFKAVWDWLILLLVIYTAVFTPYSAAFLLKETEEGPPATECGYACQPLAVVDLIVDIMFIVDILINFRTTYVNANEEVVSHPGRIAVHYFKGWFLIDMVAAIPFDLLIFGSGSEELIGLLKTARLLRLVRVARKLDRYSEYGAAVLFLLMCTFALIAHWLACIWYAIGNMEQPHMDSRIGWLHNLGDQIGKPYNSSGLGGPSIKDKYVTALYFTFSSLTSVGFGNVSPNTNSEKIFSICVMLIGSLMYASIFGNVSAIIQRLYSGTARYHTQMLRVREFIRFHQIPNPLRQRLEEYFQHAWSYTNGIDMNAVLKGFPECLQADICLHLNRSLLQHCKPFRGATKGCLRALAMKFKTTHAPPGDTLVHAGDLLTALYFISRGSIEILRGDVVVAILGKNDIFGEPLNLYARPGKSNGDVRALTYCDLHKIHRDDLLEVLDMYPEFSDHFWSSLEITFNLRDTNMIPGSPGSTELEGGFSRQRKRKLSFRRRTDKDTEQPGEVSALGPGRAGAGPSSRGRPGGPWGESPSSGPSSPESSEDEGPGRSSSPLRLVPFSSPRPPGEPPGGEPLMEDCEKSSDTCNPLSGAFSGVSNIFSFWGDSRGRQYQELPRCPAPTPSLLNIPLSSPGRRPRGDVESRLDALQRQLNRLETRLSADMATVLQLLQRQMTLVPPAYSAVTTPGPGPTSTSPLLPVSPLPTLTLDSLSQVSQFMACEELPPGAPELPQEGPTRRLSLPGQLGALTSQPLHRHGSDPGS
Sequence of CYP3A4 (P08684 whole entry): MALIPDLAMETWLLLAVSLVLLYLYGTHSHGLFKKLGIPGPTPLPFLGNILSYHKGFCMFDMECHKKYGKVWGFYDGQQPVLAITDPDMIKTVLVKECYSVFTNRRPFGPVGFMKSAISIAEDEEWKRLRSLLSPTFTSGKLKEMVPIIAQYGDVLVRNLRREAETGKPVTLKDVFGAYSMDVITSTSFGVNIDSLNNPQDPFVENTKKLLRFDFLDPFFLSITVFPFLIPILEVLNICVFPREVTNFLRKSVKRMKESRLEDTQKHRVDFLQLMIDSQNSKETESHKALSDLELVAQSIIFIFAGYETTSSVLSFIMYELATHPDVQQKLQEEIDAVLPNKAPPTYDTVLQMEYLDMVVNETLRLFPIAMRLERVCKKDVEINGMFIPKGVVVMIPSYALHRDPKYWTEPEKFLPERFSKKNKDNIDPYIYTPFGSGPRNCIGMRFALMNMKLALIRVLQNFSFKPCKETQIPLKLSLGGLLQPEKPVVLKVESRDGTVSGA

Consider `CC1(C)Oc2cc3oc(=O)ccc3cc2CC1OC(=O)C=Cc1cccnc1` (stereo not shown) [JH4], for which, in [1] (intravenous 5mg/kg (n=3)), the “AUCINF_obs, Mean” value turned out to be 1.4 ng·h/mL; the “AUCall, Mean” value stood at 1.3 ng·h/mL; the “MRTINF_obs, Mean” value worked out at 0.2 h; the “T1/2, Mean” value was 6 min. Besides, the “Vss_obs, Mean” value in data set [1] (intravenous 5mg/kg (n=3)) worked out at 673.9 L/kg. Moreover, in data set [1] (intravenous 5mg/kg (n=3), 0.08 hr), the “Plasma concentration, Mean” value worked out at 4.7 ng/mL. Moreover, the “Plasma concentration, Mean” value in [1] (intravenous 5mg/kg (n=3), 0.25 hr) stood at 1.5 ng/mL. Moreover, the “Plasma concentration, Mean” value in data set [1] (intravenous 5mg/kg (n=3), 0.5 hr) turned out to be 0.6 ng/mL. For the same compound, the “Half-life after in vivo oral administration” value in data set [1] (oral 10 mg/kg) is listed as “extremely short”. Moreover, in the data set with H3K9me3 (2μM), the “H3K9me3 positive cells after treatment with chemicals, Ave” value (“H3K9me3 positive cells … Ave” below) came out at 14.5; the “H3K9me3 positive cells after treatment with chemicals” value was 13 and 17 and 15 (2×) and 11 and 16. For the same compound, in the data set with H3K9me3 (5μM), the “H3K9me3 positive cells … Ave” value was found to be 21.6667; the “H3K9me3 positive cells after treatment with chemicals” value is 27 and 16 and 20 and 22 (2×) and 23. Besides, in the data set on H3K9me3 (10μM), the “H3K9me3 positive cells … Ave” value is given as 27; the “H3K9me3 positive cells after treatment with chemicals” value is 30 and 29 and 24 and 25 and 27 (2×). In the data set on Lmna G609G/G609G mouse, the “Extension of life span” value is on record as ~ 4 weeks and the “Increase of life span” value is ~ 25%.
Broadly, the bioavailability is dose-corrected exposure relative to a reference, in per cent. A word on the Cmax: it is the peak of the concentration-time curve. The term Tmax denotes the time from dosing to the highest level. What is called fraction unbound is the share of the substance not bound to proteins or other matrix. By fraction remaining is commonly meant the share of the starting amount still present when the sample was taken. The compound `CC1(C)Oc2cc3oc(=O)ccc3cc2C[C@@H]1OC/C=C/c1ccccc1` [SLC-D011] returned a CYP inhibition on CYP3A4 of 92.5. In addition, the bioavailability in data set [1] (rat, blood, oral, 10 mg/kg) came out at 58.1%; in [1] (rat, blood, oral 5 mg/kg) it was 65.9%. This compound also gave a Cmax in [1] (rat, blood, oral 5mg/kg (n=3)) of 29.7 ng/mL. For the same compound, in data set [1] (rat, blood, oral 5mg/kg (n=3)), the Tmax stood at 2.7 h. Also, the AUC in data set [1] (rat, blood, oral 5mg/kg (n=3), read-out: AUCall, Mean) stood at 144 ng·h/mL. In data set [2], this compound yielded a fraction unbound of 0.001. The amount remaining at 0.5 h came to 83.6% in the data set “Plasma stability, rat” (30min); 21.5% in [3]; 59.7% in data set [5]. Also, the share remaining at 2 h in “Plasma stability, rat” (120min) came out at 75.1%. Further, the H3K9me3 intensity in the data set on H3K9me3 is 0.227 AU and 0.219 AU and 0.255 AU and 0.254 AU; with H3K9me3 (mean) it was 0.2387 AU. Moreover, the figures for the “H3K9me3 positive cells … Ave” value in the data set on H3K9me3 (2μM), with H3K9me3 (5μM) and in the data set on H3K9me3 (10μM) were 19.5, 25.1667 and 29, respectively. Also, the “H3K9me3 positive cells after treatment with chemicals” value is 15 and 23 and 20 and 19 and 22 and 18 with H3K9me3 (2μM); 20 and 24 and 27 and 28 and 29 and 23 with H3K9me3 (5μM); 24 and 33 and 32 and 30 and 29 and 26 in the data set on H3K9me3 (10μM). Further, the “Effect on H3K9me3 expression” value with H3K9me3 (HGPS cells) is “induce H3K9me3 expression”. In addition, the “hERG inhibition (in words)” value in data set [4] is given as “without severe hERG inhibition”. The “hERG inhibition: % Inhibition” value in data set [4] (Conc: 1uM) amounted to 14.673±4.74%; in [4] (Conc: 10uM), 66.31±16.77%.
